Reference: patent US11427567B2, “Imidazolyl pyrimidinylamine compounds as CDK2 inhibitors” (Incyte Corporation, priority 2019, dated 2022)

Target: CDK2/Cyclin E1 (Homo sapiens (Human), UniProt P24941)
Test: CDK2/Cyclin E1 HTRF enzyme activity assay (Example A)
Format: biochemical
Settings: 1 mM ATP
Protocol: Assays were conducted in white 384-well polystyrene plates in a final reaction volume of 8 μL. […] HTRF signals were read after 1 hour at room temperature on a PHERAstar FS plate reader (BMG Labtech). Data was analyzed with IDBS XLFit and GraphPad Prism 5.0 software using a three or four parameter dose response curve to determine IC50 for each compound.

Row | IC50 [nM] | Compound
1 | ≤ 50 | O=S(=O)(C1CC1)N1CCC(Nc2ncc(C(F)(F)F)c(-c3cn(-c4cccnc4C(F)(F)F)cn3)n2)CC1 [Example 91, N-(1-(Cyclopropylsulfonyl)piperidin-4-yl)-5-(trifluoromethyl)-4-(1-(2-(trifluoromethyl)pyridin-3-yl)-1H-imidazol-4-yl)pyrimidin-2-amine]
2 | ≤ 50 | CS(=O)(=O)N1CCC(Nc2ncc(C(F)(F)F)c(-c3cn(-c4ccnc(N5CCOCC5)c4C#N)cn3)n2)CC1 [Example 317, 4-(4-(2-((1-(Methylsulfonyl)piperidin-4-yl)amino)-5-(trifluoromethyl)pyrimidin-4-yl)-1H-imidazol-1-yl)-2-morpholinonicotinonitrile]
3 | ≤ 50 | CN1CC(c2ccc(-n3cnc(-c4nc(NC5CCN(S(C)(=O)=O)CC5)ncc4C(F)(F)F)c3)c(Cl)c2)C1 [Example 440, 4-(1-(2-Chloro-4-(1-methylazetidin-3-yl)phenyl)-1H-imidazol-4-yl)-N-(1-(methylsulfonyl)piperidin-4-yl)-5-(trifluoromethyl)pyrimidin-2-amine]
4 | ≤ 50 | CS(=O)(=O)N1CCC(Nc2ncc(C(F)(F)F)c(-c3cn(-c4ccc(C#N)cc4CO)cn3)n2)CC1 [Example 235, 3-(Hydroxymethyl)-4-(4-(2-((1-(methylsulfonyl)piperidin-4-yl)amino)-5-(trifluoromethyl)pyrimidin-4-yl)-1H-imidazol-1-yl)benzonitrile]
5 | ≤ 50 | CS(=O)(=O)N1CCC(Nc2ncc(C(F)(F)F)c(-c3cn(-c4ccc(CN5CCCC5)cc4Cl)cn3)n2)CC1 [Example 178, 4-(1-(2-Chloro-4-(pyrrolidin-1-ylmethyl)phenyl)-1H-imidazol-4-yl)-N-(1-(methylsulfonyl)piperidin-4-yl)-5-(trifluoromethyl)pyrimidin-2-amine]
6 | ≤ 50 | CNC1CCN(c2ccc(-n3cc(-c4nc(NC5CCN(S(C)(=O)=O)CC5)ncc4C(F)(F)F)nc3C)c(F)c2)CC1 [Example 107, 4-(1-(2-Fluoro-4-(4-(methylamino)-piperidin-1-yl)-phenyl)-2-methyl-1H-imidazol-4-yl)-N-(1-(methyl-sulfonyl)piperidin-4-yl)-5-(trifluoro-methyl)pyrimidin-2-amine]
7 | ≤ 50 | Cc1nccc(-n2cnc(-c3nc(NC4CCN(S(C)(=O)=O)CC4)ncc3C(F)(F)F)c2)c1C#N [Example 293, 2-Methyl-4-(4-(2-((1-(methylsulfonyl)piperidin-4-yl)amino)-5-(trifluoromethyl)pyrimidin-4-yl)-1H-imidazol-1-yl)nicotinonitrile]
8 | ≤ 50 | CN(C)Cc1ccc(-n2cnc(-c3nc(NC4CCN(S(C)(=O)=O)CC4)ncc3C(F)(F)F)c2)c(F)c1 [Example 267, 4-(1-(4-((Dimethylamino)methyl)-2-fluorophenyl)-1H-imidazol-4-yl)-N-(1-(methylsulfonyl)piperidin-4-yl)-5-(trifluoromethyl)pyrimidin-2-amine]
9 | ≤ 50 | CS(=O)(=O)N1CCC(Nc2ncc(C(F)(F)F)c(-c3cn(-c4ccc(CNC5CC5)cc4C#N)cn3)n2)CC1 [Example 343, 5-((Cyclopropylamino)methyl)-2-(4-(2-((1-(methylsulfonyl)piperidin-4-yl)amino)-5-(trifluoromethyl)pyrimidin-4-yl)-1H-imidazol-1-yl)benzonitrile]
10 | ≤ 50 | CS(=O)(=O)N1CCC(Nc2ncc(C(F)(F)F)c(-c3cn(-c4ccc(CNCC#N)cc4Cl)cn3)n2)CC1 [Example 187, 2-((3-Chloro-4-(4-(2-((1-(methylsulfonyl)-piperidin-4-yl)amino)-5-(trifluoromethyl)-pyrimidin-4-yl)-1H-imidazol-1-yl)benzyl)-amino)acetonitrile]
11 | ≤ 50 | CC(C)NCCc1cccc(-n2cnc(-c3nc(NC4CCN(S(C)(=O)=O)CC4)ncc3C(F)(F)F)c2)c1Cl [Example 465, 4-(1-(2-Chloro-3-(2-(isopropylamino)ethyl)phenyl)-1H-imidazol-4-yl)-N-(1-(methylsulfonyl)piperidin-4-yl)-5-(trifluoromethyl)pyrimidin-2-amine]
